Reference: patent US6346406B1, “Elongation factor-2 kinase (EF-2 kinase), and methods of use therefor” (University of Medicine & Dentistry of New Jersey, priority 1997, dated 2002)

Tests used:
recombinant eEF-2 kinase = biological target: T1, recombinant eEF-2 kinase (Homo sapiens, UniProt O00418); assay: eEF-2 kinase activity assay using a 16-amino acid peptide derived from myosin heavy chain as the phosphorylation target; type: biochemical; settings: [γ-33P]ATP, 30° C., phosphocellulose paper, scintillation counting
T1 construct: one of GST (pGEX-2T), 6xHis (pRSET A) or thioredoxin (pThioHisB); made in house; host or cells: Escherichia coli BL21(DE3)
Experimental: FIG. 8. Assay for eEF-2 kinase activity. Recombinant eEF-2 kinase (2 μg) was incubated with increasing concentrations of a peptide phosphorylation target (RKKGESEKTKTKEFL) in a buffer consisting of 12.5 mM Hepes-KOH (pH 7.4), 2.5 mM magnesium acetate, 1.25 mM DTT, 25 μM CaCl2, 0.5 μg calmodulin, 100 μM ATP, and 0.5 μCi [γ-^33P]ATP in a total volume of 50 μl. Samples were incubated at 30° C. and aliquots were withdrawn at various time points, and the reaction was terminated by incubation in an ice water bath. The aliquots were then spotted onto phosphocellulose paper (2 cm×2 cm) and washed (4×4 min) with 75 mM phosphoric acid. The papers were then rinsed with 100% ethanol, dried, and then counted in a scintillation counter.
Human eEF-2 kinase cDNA was cloned into three different expression vectors: pGEX-2T (Pharmacia Biotech, Piscataway, N.J.); pRSET A (Invitrogen, Sorrento Valley, Calif.); and, pThioHisB (Invitrogen). After transformation into Escherichia coli strain BL21(DE3), transformants were cultured in LB broth containing 50 μg/ml ampicillin. When the cultured reached an A600 value of 0.7, isopropyl-β-thiogalactopyranoside (IPTG) was added to the bacterial cultures to a final concentration of […] to induce expression. […] The refolded protein was analyzed by SDS-PAGE and assayed for the ability to phosphorylate eEF-2. […]

[1] = system: recombinant human eEF-2 kinase; assay: eEF-2 kinase activity assay: phosphorylation of rabbit reticulocyte eEF-2 with [γ-32P]ATP, SDS/PAGE and autoradiography; type: biochemical; settings: kinase expressed in coupled transcription/translation system, assayed without further purification; 20 μM antagonist is printed in the FIG. 3 legend for panel C
Experimental: FIG. 3. Activity of recombinant eEF-2 kinase in vitro. A large scale (0.5 ml) reaction using a mixture of Cefk-1 and Cefk-2 plasmids was run as in FIG. 2, with the omission of labeled methionine. In the control experiment, the reaction was run with a plasmid containing a luciferase gene. (A) The reaction mixtures were separated by chromatography on a Mono Q column as described. (B) eEF-2 kinase activity in fractions was measured as the ability to phosphorylate purified rabbit eEF-2 in the presence of [γ-^32 P]ATP. Purified rabbit reticulocyte eEF-2 kinase was used in the (+) control experiments. (C) Ca^2+/calmodulin-dependency of recombinant C. elegans eEF-2 kinase. Mono Q fraction 25 was assayed in a standard eEF-2 kinase assay in the presence and absence of Ca^2+ and calmodulin and 20 μM trifluoperazine (TFP) or N-(6 aminohexyl)-5-chloro-1-napthalene-sulfonamide (W7). (D) Ca^2+/calmodulin-dependency of recombinant human eEF-2 kinase. […]
To assay for eEF-2 kinase activity, 5 μl from each fraction was added to a reaction mixture (40 μl) containing 50 mM Hepes-KOH (ph. 7.4) 10 mM magnesium acetate, 0.1 mM CaCl2, 5 mM dithiothreitol, 50 μM ATP, 2 μCi [γ-^32P]ATP, 0.6 μg calmodulin, and 0.5 μg rabbit reticulocyte eEF-2. […] Phosphoproteins were analyzed by autoradiography. […]

Row | Compound | ability to serve as substrate (phosphoacceptor) for eEF-2 kinase (recombinant eEF-2 kinase) | inhibition of recombinant human eEF-2 kinase activity by calmodulin antagonists [1]
1 | RKKFGESEKTKTKEFL [16-mer peptide based on the phosphorylation site of Dictyostelium discoideum MHC, substrate for eEF-2 kinase] | good substrate | –
2 | CN1CCN(CCCN2c3ccccc3Sc3ccc(C(F)(F)F)cc32)CC1 [trifluoperazine] | – | completely inhibited
3 | NCCCCCCNS(=O)(=O)c1cccc2c(Cl)cccc12 [N-(6-aminohexyl)-5-chloro-1-napthalene-sulfonamide] | – | completely inhibited
